{
  "source": "paper PMC5545217",
  "about": "(Nature Communications, 2017)",
  "molecules": {"B1": {"name": "Mycobacterium tuberculosis ATP-phosphoribosyltransferase (enzyme)", "chain": "MLRVAVPNKGALSEPATEILAEAGYRRRTDSKDLTVIDPVNNVEFFFLRPKDIAIYVGSGELDFGITGRDLVCDSGAQVRERLALGFGSSSFRYAAPAGRNWTTADLAGMRIATAYPNLVRKDLATKGIEATVIRLDGAVEISVQLGVADAIADVVGSGRTLSQHDLVAFGEPLCDSEAVLIERAGTDGQDQTEARDQLVARVQGVVFGQQYLMLDYDCPRSALKKATAITPGLESPTIAPLADPDWVAIRALVPRRDVNGIMDELAAIGAKAILASDIRFCRF", "notes": "also called ATP-PRT; HisG"}},
  "key": {"[1]": {"target": "T1, M. tuberculosis ATP-PRT (Mycobacterium tuberculosis, UniProt P9WMN1)", "test": "biochemical"}, "[2]": {"target": "T2, ATP-PRT (Mycobacterium tuberculosis, UniProt P9WMN1)"}, "[3]": {"target": "T2, ATP-PRT", "test": "Competition saturation transfer difference (STD) NMR", "assay_type": "binding", "details": "20 μM ATP-PRT, 400 μM TIH, L-His 0-3000 μM, pH 8.0", "protocol": "NMR spectra were recorded at 25 °C on a Bruker Avance-600 spectrometer equipped with a triple resonance cryo-probe and operating at a ^1H frequency of 600 MHz. […] Spectra with on-resonance pre-saturation of the enzyme at 0.8 ppm were recorded with a saturation time of 2 s. An off-resonance control spectrum was recorded with a saturation time of 2 s. Water suppression was achieved by excitation sculpting. Data processing and spectral subtractions were performed using Bruker TopSpin 3.2 software."}, "[4]": {"target": "T1, M. tuberculosis ATP-PRT", "details": "cited from earlier work"}, "[5]": {"target": "the molecule itself", "test": "crystal structure"}},
  "note": "Read-outs that look alike come from different tables or passages of the source.",
  "data": [
    {"molecule": "O=P(O)(O)OC[C@H]1O[C@H](OP(=O)(O)OP(=O)(O)O)[C@H](O)[C@@H]1O", "note": "[PRPP, 5-phospho-α-D-ribose 1-diphosphate]", "values": [
      {"measurement": "K m,PRPP", "setting": "[1]; activation experiment, unactivated reaction, varying PRPP", "value": "190 ± 30", "unit": "µM"}
    ]},
    {"molecule": "N[C@@H](Cc1c[nH]cn1)C(=O)O", "note": "[L-His, L-histidine, reference compound]", "values": [
      {"measurement": "Drift time of main ATP-PRT form", "setting": "[2]; pH 6.8, charge state +28", "value": 44.1, "unit": "ms"},
      {"measurement": "Drift time of main ATP-PRT form", "setting": "[2]; pH 9.0, charge state +28", "value": 44.2, "unit": "ms"},
      {"measurement": "Competition STD NMR outcome", "setting": "[3]", "value": "displacement of TIH by L-His"},
      {"measurement": "Hill number (n H) for L-His inhibition", "setting": "[4]", "value": 1.5},
      {"measurement": "IC50", "setting": "[1]", "value": "22 ± 4", "unit": "µM"},
      {"measurement": "ATP-PRT activity at saturating L-His", "setting": "[1]; 400 µM L-His (20-fold K i)", "value": "fully inhibited"},
      {"measurement": "Ki", "setting": "[1]; L-His inhibition vs ATP, [TIH] 0 mM, read-out: K i,ATP", "value": "20 ± 1", "unit": "µM"},
      {"measurement": "Ki", "setting": "[1]; linear noncompetitive inhibition vs. PRPP, no TIH, read-out: K i,PRPP", "value": "16 ± 1", "unit": "µM"}
    ]},
    {"molecule": "Nc1ncnc2c1ncn2[C@@H]1O[C@H](COP(=O)(O)OP(=O)(O)OP(=O)(O)O)[C@@H](O)[C@H]1O", "note": "[ATP]", "values": [
      {"measurement": "K m,ATP", "setting": "[1]; [TIH] 0 mM, L-His inhibition pattern", "value": "230 ± 30", "unit": "µM"},
      {"measurement": "K m,ATP", "setting": "[1]; [TIH] 0.25 mM, L-His inhibition pattern", "value": "200 ± 20", "unit": "µM"},
      {"measurement": "K m,ATP", "setting": "[1]; [TIH] 0.8 mM, L-His inhibition pattern", "value": "180 ± 20", "unit": "µM"},
      {"measurement": "K m,ATP", "setting": "[1]; [TIH] 4 mM, L-His inhibition pattern", "value": "160 ± 20", "unit": "µM"},
      {"measurement": "K m,ATP", "setting": "[1]; activation experiment, unactivated reaction, varying ATP", "value": "100 ± 10", "unit": "µM"}
    ]},
    {"molecule": "N[C@@H](Cc1cccs1)C(=O)O", "note": "[TIH, 3-(2-thienyl)-L-alanine]", "values": [
      {"measurement": "Drift time of main ATP-PRT form", "setting": "[2]; pH 6.8, charge state +28", "value": 44.2, "unit": "ms"},
      {"measurement": "Drift time of main ATP-PRT form", "setting": "[2]; pH 9.0, charge state +28", "value": 44.1, "unit": "ms"},
      {"measurement": "ATP-PRT activity restored", "setting": "[1]; 400 µM L-His plus close to 4 mM TIH", "value": 100, "unit": "%"},
      {"measurement": "V max", "setting": "[1]; [TIH] 0.25 mM, L-His inhibition pattern, varying ATP", "value": "0.28 ± 0.01", "unit": "s⁻¹"},
      {"measurement": "V max", "setting": "[1]; [TIH] 0.8 mM, L-His inhibition pattern, varying ATP", "value": "0.38 ± 0.01", "unit": "s⁻¹"},
      {"measurement": "V max", "setting": "[1]; [TIH] 4 mM, L-His inhibition pattern, varying ATP", "value": "0.76 ± 0.01", "unit": "s⁻¹"},
      {"measurement": "Emax", "setting": "[1]; read-out: ATP-PRT activity increased up to (maximal activation)", "value": "≤ 433", "unit": "%"},
      {"measurement": "αATP", "setting": "[1]; varying ATP, Eq. 4", "value": "1.4 ± 0.2"},
      {"measurement": "βATP", "setting": "[1]; varying ATP, Eq. 4", "value": "4.9 ± 0.2"},
      {"measurement": "α (PRPP)", "setting": "[1]; varying PRPP, Eq. 4", "value": "1.1 ± 0.4"},
      {"measurement": "β (PRPP)", "setting": "[1]; varying PRPP, Eq. 4", "value": "4.9 ± 0.5"}
    ]},
    {"molecule": "B1", "values": [
      {"measurement": "stoichiometry N", "setting": "[5]", "value": 6}
    ]}
  ]
}
